In article PMC2853757 (Analytical biochemistry, 2009):

Assays:
[1] = target: V-ATPase (vacuolar proton translocating ATPase) (Saccharomyces cerevisiae, UniProt P25515+P32563); experiment: BCECF flow cytometry dose response in living yeast; format: cell-based
[2] = target: V-ATPase (vacuolar proton translocating ATPase; catalytic subunit A) (Saccharomyces cerevisiae, UniProt P16140+P17255); experiment: ATP hydrolysis; format: biochemical
Sequence of V-ATPase (vacuolar proton translocating ATPase; catalytic subunit A) (P17255 2-283): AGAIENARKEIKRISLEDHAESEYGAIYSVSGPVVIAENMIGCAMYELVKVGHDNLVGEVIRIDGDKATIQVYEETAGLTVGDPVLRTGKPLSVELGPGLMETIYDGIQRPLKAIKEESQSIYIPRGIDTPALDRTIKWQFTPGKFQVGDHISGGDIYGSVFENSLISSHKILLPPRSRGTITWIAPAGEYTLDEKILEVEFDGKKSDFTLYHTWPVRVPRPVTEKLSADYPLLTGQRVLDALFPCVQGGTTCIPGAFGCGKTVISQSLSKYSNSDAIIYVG
Sequence of V-ATPase (vacuolar proton translocating ATPase; catalytic subunit A) (P17255 738-1071): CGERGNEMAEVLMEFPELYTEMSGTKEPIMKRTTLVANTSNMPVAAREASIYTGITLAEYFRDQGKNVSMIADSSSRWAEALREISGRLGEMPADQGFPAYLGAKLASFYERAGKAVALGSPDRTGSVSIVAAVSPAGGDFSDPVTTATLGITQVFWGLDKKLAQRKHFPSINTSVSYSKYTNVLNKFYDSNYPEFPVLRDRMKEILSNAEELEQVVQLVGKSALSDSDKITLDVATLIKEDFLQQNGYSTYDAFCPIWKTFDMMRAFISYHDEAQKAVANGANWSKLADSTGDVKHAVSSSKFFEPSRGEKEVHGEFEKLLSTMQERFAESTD
Sequence of V-ATPase (vacuolar proton translocating ATPase; catalytic subunit A) (P16140 2-517): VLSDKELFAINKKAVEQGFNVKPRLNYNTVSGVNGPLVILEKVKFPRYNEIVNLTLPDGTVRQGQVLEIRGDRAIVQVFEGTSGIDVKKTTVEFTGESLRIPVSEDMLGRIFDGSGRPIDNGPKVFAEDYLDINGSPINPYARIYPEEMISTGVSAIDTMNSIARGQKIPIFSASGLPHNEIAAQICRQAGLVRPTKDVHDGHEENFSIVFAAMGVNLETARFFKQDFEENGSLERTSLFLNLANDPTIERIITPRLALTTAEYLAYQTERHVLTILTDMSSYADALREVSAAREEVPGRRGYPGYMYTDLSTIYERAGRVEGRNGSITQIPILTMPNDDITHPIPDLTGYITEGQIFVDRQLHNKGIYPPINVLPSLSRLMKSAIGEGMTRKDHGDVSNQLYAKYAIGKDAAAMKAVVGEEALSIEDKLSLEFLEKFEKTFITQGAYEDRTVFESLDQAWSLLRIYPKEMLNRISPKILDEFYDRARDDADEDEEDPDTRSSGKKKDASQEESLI
Sequence of V-ATPase (vacuolar proton translocating ATPase; catalytic subunit A) (P25515 whole entry partner): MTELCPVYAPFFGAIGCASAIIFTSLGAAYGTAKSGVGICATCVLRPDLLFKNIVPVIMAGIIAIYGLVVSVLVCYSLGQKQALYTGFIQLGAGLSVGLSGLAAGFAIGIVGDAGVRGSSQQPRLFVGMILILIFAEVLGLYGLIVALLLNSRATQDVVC
Sequence of V-ATPase (vacuolar proton translocating ATPase; catalytic subunit A) (P32563 2-840 partner): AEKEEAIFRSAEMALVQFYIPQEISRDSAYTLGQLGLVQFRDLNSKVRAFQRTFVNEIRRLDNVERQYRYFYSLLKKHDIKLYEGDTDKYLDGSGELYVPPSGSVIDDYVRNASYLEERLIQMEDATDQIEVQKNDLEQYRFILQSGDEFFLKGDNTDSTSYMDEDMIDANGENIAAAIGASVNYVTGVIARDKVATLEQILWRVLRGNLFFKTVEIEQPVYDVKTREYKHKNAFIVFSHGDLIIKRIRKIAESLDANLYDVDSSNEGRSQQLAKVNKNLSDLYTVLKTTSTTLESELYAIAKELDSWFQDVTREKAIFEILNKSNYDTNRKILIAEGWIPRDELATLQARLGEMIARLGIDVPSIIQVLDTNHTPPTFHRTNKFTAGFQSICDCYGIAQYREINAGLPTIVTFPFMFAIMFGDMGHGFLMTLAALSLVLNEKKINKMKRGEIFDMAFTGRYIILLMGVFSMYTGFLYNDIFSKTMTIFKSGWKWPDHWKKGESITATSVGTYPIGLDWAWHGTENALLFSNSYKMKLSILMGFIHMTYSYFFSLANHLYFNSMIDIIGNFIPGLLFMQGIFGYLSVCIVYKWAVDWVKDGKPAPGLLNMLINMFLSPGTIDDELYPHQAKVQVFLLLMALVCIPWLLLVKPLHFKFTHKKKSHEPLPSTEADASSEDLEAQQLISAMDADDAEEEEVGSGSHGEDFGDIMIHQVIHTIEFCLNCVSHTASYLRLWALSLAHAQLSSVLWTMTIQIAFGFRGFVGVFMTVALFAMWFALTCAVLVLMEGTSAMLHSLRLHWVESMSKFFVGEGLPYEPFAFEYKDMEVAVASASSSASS

Row | Compound | EC50 [1] | EC50 [2]
1 | C/C=C/[C@H]1O[C@@](O)([C@@H](C)[C@H](O)[C@H](C)[C@H]2OC(=O)/C(OC)=C/C(C)=C/[C@@H](C)[C@@H](O)[C@@H](CC)[C@@H](O)[C@H](C)C/C(C)=C/C=C/[C@@H]2OC)C[C@@H](O[C@H]2C[C@@H](O)[C@H](OC(N)=O)[C@@H](C)O2)[C@@H]1C [concanamycin A] | 2.1 to 2.27 µM | –
2 | CCN(CC)C(=S)SSC(=S)N(CC)CC [disulfiram] | – | 24.7 µM
